The values that follow come from patent publication US6005103A, “Pyrone derivatives as protease inhibitors and antiviral agents” (Warner-Lambert Company, priority 1994, dated 1999).

The subject of one test is HIV. The following applies: cell-free and cell-mediated HIV infection; cited from earlier work.
Test [1] relates to Streptococcus pyogenes C203. Description: Antibacterial activity, microtitration dilution method. In kind it is cell-based. The following applies: read-out: minimum inhibitory concentration (MIC). An excerpt:
(§1) The compounds of the invention display antibacterial activity when tested by the microtitration dilution method as described in Heifetz, et al., Antimicr. Agents. & Chemoth. 6: 124 (1974) which is incorporated herein by reference.
(§2) By use of the above referenced method, the following minimum inhibitory concentration values (MICs in μg/mL) were obtained for representative compounds of the invention vs. clinically relevant gram positive pathogens which have become highly resistant to conventional therapy in recent years.

In test [2] the test system is Streptococcus pneumonia 5V-1. Described as above. The following applies: Streptococcus pneumoniae, 5V1, read-out: minimum inhibitory concentration (MIC). Format: cell-based.
From the text: as §1, §2

Test [3] has as its system Enterococcus foecalis MGH2. The description is as above. Format: cell-based. The following applies: read-out: minimum inhibitory concentration (MIC).
From the text: as §1, §2

In test [4] the test system is Staphylococcus aureus UC-76. Described as above. The following applies: UC76, read-out: minimum inhibitory concentration (MIC). Format: cell-based.
From the text: as §1, §2

The test system of test [5] is Staphylococcus aureus H228. The test is described as above. Format: cell-based. Particulars: read-out: minimum inhibitory concentration (MIC).
From the text: as §1, §2

In brackets after ≈: the same amount, converted by molar mass.

As for `CC(=O)CC(c1ccccc1)c1c(O)c2ccccc2oc1=O` (stereo not drawn) [Warfarin, 3-(α-acetonylbenzyl)-4-hydroxycoumarin], in the test on HIV, the “HIV infection inhibition (in words)” value is “inhibiting cell-free and cell-mediated HIV infection”.
`CC(C)CC(SC1CCCCC1)c1c(O)cc(-c2ccccc2)oc1=O` (racemic) [Example 142, 3-[l-(Cyclohexylthio)-3-methylbutyl]-4-hydroxy-6-phenyl-2H-pyran-2-one (±)]: the MIC in test [1] was determined as 25 µg/mL (≈ 67.1 µM); in test [2], 25 µg/mL (≈ 67.1 µM); in test [3], 25 µg/mL (≈ 67.1 µM); in test [4], 12.5 µg/mL (≈ 33.6 µM); in test [5], 12.5 µg/mL (≈ 33.6 µM).
